Data from PubChem BioAssay (NCI).
Several values for one entry are separate records, joined by “and”; a condition that tells them apart may be missing. Equal entries are not always repeated.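 Protocol summary: plate cells (96-well), add compound at 5 concentrations, incubate 48 h, interpolate endpoints linearly. GI50 marks 50% less growth. The concentration for full growth arrest is given as TGI.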

Assays:
Assay in all cases: growth of human tumour cells (NCI), 48 h
786-0 renal = test system: 786-0 renal
A549 NSCLC = test system: A549 NSCLC
ACHN renal = test system: ACHN renal
COLO 205 colon = test system: COLO 205 colon
DLD-1 colon = test system: DLD-1 colon
HCT-116 colon = test system: HCT-116 colon
HOP-62 NSCLC = test system: HOP-62 NSCLC
HOP-92 NSCLC = test system: HOP-92 NSCLC
HT29 colon = test system: HT29 colon
IGROV1 ovarian = test system: IGROV1 ovarian
K-562 leukemia = test system: K-562 leukemia
KM12 colon = test system: KM12 colon
KM20L2 colon = test system: KM20L2 colon
LOX IMVI melanoma = test system: LOX IMVI melanoma
LXFL 529 NSCLC = test system: LXFL 529 NSCLC
M14 melanoma = test system: M14 melanoma
M19-MEL melanoma = test system: M19-MEL melanoma
MOLT-4 leukemia = test system: MOLT-4 leukemia
NCI-H226 lung = test system: NCI-H226 lung
NCI-H23 lung = test system: NCI-H23 lung
NCI-H460 lung = test system: NCI-H460 lung
NCI-H522 lung = test system: NCI-H522 lung
OVCAR-3 ovarian = test system: OVCAR-3 ovarian
OVCAR-4 ovarian = test system: OVCAR-4 ovarian
OVCAR-5 ovarian = test system: OVCAR-5 ovarian
OVCAR-8 ovarian = test system: OVCAR-8 ovarian
SF-268 CNS = test system: SF-268 CNS
SF-295 CNS = test system: SF-295 CNS
SF-539 CNS = test system: SF-539 CNS
SK-MEL-28 melanoma = test system: SK-MEL-28 melanoma
SK-OV-3 ovarian = test system: SK-OV-3 ovarian
SNB-19 CNS = test system: SNB-19 CNS
SNB-75 CNS = test system: SNB-75 CNS
SNB-78 CNS = test system: SNB-78 CNS
SW-620 colon = test system: SW-620 colon
TK-10 renal = test system: TK-10 renal
U251 CNS = test system: U251 CNS
UACC-257 melanoma = test system: UACC-257 melanoma
UACC-62 melanoma = test system: UACC-62 melanoma
UO-31 renal = test system: UO-31 renal
DMS 114 small cell lung = test system: DMS 114 small cell lung
HCT-15 colon = test system: HCT-15 colon
HL-60(TB) leukemia = test system: HL-60(TB) leukemia
RPMI-8226 leukemia = test system: RPMI-8226 leukemia
SR leukemia = test system: SR leukemia
A498 renal = test system: A498 renal
CAKI-1 renal = test system: CAKI-1 renal
CCRF-CEM leukemia = test system: CCRF-CEM leukemia
EKVX NSCLC = test system: EKVX NSCLC
HOP-18 NSCLC = test system: HOP-18 NSCLC
MALME-3M melanoma = test system: MALME-3M melanoma
RXF 393 renal = test system: RXF 393 renal
SK-MEL-5 melanoma = test system: SK-MEL-5 melanoma
SN12C renal = test system: SN12C renal

Oc1ccccc1-c1n[nH]c(=S)n1/N=C/c1ccc(-c2ccc(Br)cc2)o1
TGI (786-0 renal): > 100 µM | TGI (A549 NSCLC): > 100 µM | TGI (ACHN renal): 92 µM | TGI (COLO 205 colon): > 100 µM | TGI (DLD-1 colon): > 100 µM | TGI (HCT-116 colon): > 100 µM | TGI (HOP-62 NSCLC): > 100 µM | TGI (HOP-92 NSCLC): 47.8 µM | TGI (HT29 colon): > 100 µM | TGI (IGROV1 ovarian): 92.6 µM | TGI (K-562 leukemia): > 100 µM | TGI (KM12 colon): > 100 µM | TGI (KM20L2 colon): > 100 µM | TGI (LOX IMVI melanoma): 56.7 µM | TGI (LXFL 529 NSCLC): 71.4 µM | TGI (M14 melanoma): > 100 µM | TGI (M19-MEL melanoma): > 100 µM | TGI (MOLT-4 leukemia): > 100 µM | TGI (NCI-H226 lung): 52.2 µM | TGI (NCI-H23 lung): 43.1 µM | TGI (NCI-H460 lung): > 100 µM | TGI (NCI-H522 lung): > 100 µM | TGI (OVCAR-3 ovarian): 80.5 µM | TGI (OVCAR-4 ovarian): 50.5 µM | TGI (OVCAR-5 ovarian): > 100 µM | TGI (OVCAR-8 ovarian): 90.1 µM | TGI (SF-268 CNS): > 100 µM | TGI (SF-295 CNS): > 100 µM | TGI (SF-539 CNS): > 100 µM | TGI (SK-MEL-28 melanoma): > 100 µM | TGI (SK-OV-3 ovarian): 95.1 µM | TGI (SNB-19 CNS): 56.1 µM | TGI (SNB-75 CNS): > 100 µM | TGI (SNB-78 CNS): 75.2 µM | TGI (SW-620 colon): > 100 µM | TGI (TK-10 renal): 51.1 µM | TGI (U251 CNS): 56.5 µM | TGI (UACC-257 melanoma): 59.6 µM | TGI (UACC-62 melanoma): 40.3 µM | TGI (UO-31 renal): 66.2 µM

CC1C(=O)C(C)C(c2ccccc2)N(C)C1c1ccccc1 (stereo not given)
GI50 (DLD-1 colon): 26.2 µM and 85.4 µM | TGI (DLD-1 colon): > 100 µM | GI50 (DMS 114 small cell lung): 30 µM and 75.1 µM | TGI (DMS 114 small cell lung): 99.7 µM and > 100 µM | GI50 (HCT-116 colon): 15.7 µM and 40.3 µM | TGI (HCT-116 colon): 30.8 µM and > 100 µM | GI50 (HCT-15 colon): 23.6 µM and 61.1 µM | TGI (HCT-15 colon): 81.8 µM and > 100 µM | TGI (HL-60(TB) leukemia): 45.5 µM and > 100 µM | TGI (HT29 colon): 91.4 µM and > 100 µM | GI50 (K-562 leukemia): 33.2 µM and 73.4 µM | TGI (K-562 leukemia): > 100 µM | GI50 (KM12 colon): 23.7 µM and 90.3 µM | TGI (KM12 colon): 67.7 µM and > 100 µM | GI50 (KM20L2 colon): 32.8 µM and 85.8 µM | TGI (KM20L2 colon): > 100 µM | GI50 (LOX IMVI melanoma): 15.8 µM and 86.2 µM | TGI (LOX IMVI melanoma): 31.4 µM and > 100 µM | GI50 (LXFL 529 NSCLC): 42.6 µM and 97.9 µM | TGI (LXFL 529 NSCLC): > 100 µM | TGI (MOLT-4 leukemia): 57.7 µM and > 100 µM | GI50 (NCI-H522 lung): 21.6 µM and 63 µM | TGI (NCI-H522 lung): 52.5 µM and > 100 µM | TGI (OVCAR-5 ovarian): > 100 µM | TGI (RPMI-8226 leukemia): 54.3 µM | GI50 (SF-295 CNS): 28 µM and 87.4 µM | TGI (SF-295 CNS): 93.9 µM and > 100 µM | TGI (SR leukemia): 48.2 µM and > 100 µM

CC/C=C/c1cc2cc[nH]c2c2c1C(C)C[C@@H]2C (stereo not given in full)
TGI (786-0 renal): 36.4 µM | TGI (A498 renal): 32.7 µM | TGI (A549 NSCLC): > 100 µM | TGI (ACHN renal): > 100 µM | TGI (CAKI-1 renal): > 100 µM | TGI (CCRF-CEM leukemia): 61.9 µM | TGI (COLO 205 colon): 37.6 µM | TGI (DLD-1 colon): > 100 µM | TGI (DMS 114 small cell lung): 51 µM | TGI (EKVX NSCLC): > 100 µM | TGI (HCT-116 colon): 29.7 µM | TGI (HCT-15 colon): 82.5 µM | TGI (HL-60(TB) leukemia): 58.3 µM | TGI (HOP-18 NSCLC): 73.7 µM | TGI (HOP-92 NSCLC): 62.6 µM | TGI (HT29 colon): 82.2 µM | TGI (IGROV1 ovarian): > 100 µM | TGI (K-562 leukemia): 65.9 µM | TGI (KM12 colon): 40.8 µM | TGI (LOX IMVI melanoma): 31 µM | TGI (LXFL 529 NSCLC): 41.9 µM | TGI (M14 melanoma): 74.9 µM | TGI (M19-MEL melanoma): 77.3 µM | TGI (MALME-3M melanoma): > 100 µM | TGI (MOLT-4 leukemia): 53.3 µM | TGI (NCI-H226 lung): 39 µM | TGI (NCI-H23 lung): 58.6 µM | TGI (NCI-H460 lung): 65.3 µM | TGI (NCI-H522 lung): 40.4 µM | TGI (OVCAR-3 ovarian): 40.5 µM | TGI (OVCAR-8 ovarian): 66.2 µM | TGI (RPMI-8226 leukemia): 53.4 µM | TGI (RXF 393 renal): 41.3 µM | TGI (SF-295 CNS): 55.9 µM | TGI (SF-539 CNS): 50.1 µM | TGI (SK-MEL-28 melanoma): 84.4 µM | TGI (SK-MEL-5 melanoma): 46.4 µM | TGI (SK-OV-3 ovarian): > 100 µM | TGI (SN12C renal): 35 µM | TGI (SNB-75 CNS): 70.1 µM | TGI (SNB-78 CNS): 67 µM | TGI (SW-620 colon): 94.8 µM | TGI (TK-10 renal): > 100 µM | TGI (U251 CNS): 51.2 µM | TGI (UACC-257 melanoma): > 100 µM | TGI (UACC-62 melanoma): 41.8 µM | TGI (UO-31 renal): 69.6 µM
